What all share (format): biochemical
Assay [1] deals with CDK1/Cyclin B1 (Homo sapiens (Human), UniProt P06493). Nature of the assay: CDK1/Cyclin B1 ADP-Glo Kinase Assay. Here is the method: CDK1/Cyclin B1 ADP-Glo Kinase Assay
(§1) The purpose of CDK1/Cyclin Bi assay is to evaluate the inhibition (% inhibition and IC50 values) of small molecule inhibitors by using a Luminescent based ADP-Glo assay. CDK1/Cyclin B1 catalyzes the production of ADP from ATP. ADP-Glo assay monitors ADP producing biochemical reactions. ADP-Glo is performed in 2 steps upon completion of kinase reaction: a combined termination of kinase reaction and depletion of remaining ATP in the first step, and conversion of generated ADP to ATP and the newly produced ATP to light output using luciferase/luciferin reaction in the second step. The luminescent signal generated is proportional to the ADP concentration produced and is correlated with the kinase activity. CDK1/Cyclin B1 was purchased from Carna (Cat 04-102). […] The assay was initiated with the addition of ATP-containing substrate solution, following a 30-minute pre-incubation of enzyme and inhibitor at room temperature in the reaction mixture. The reaction was stopped after 90 minutes at room temperature by the addition of 10 μL of ADP-GLO Reagent. After a 90 minute incubation, 20 μL of Kinase Detection Reagent was added. Samples were incubated for 40 minutes, after which plate well luminescence was measured on a Envision microplate reader. The IC50 determinations were made from a plot of the fractional velocity as a function of inhibitor concentration fit to the 4 parameters IC50 equation.
A general note: In ADP-Glo the light output rises with the ADP produced.

The target of assay [2] is CDK6/Cyclin D3 (Homo sapiens (Human), UniProt Q00534). Kind of assay: CDK6/Cyclin D3 ADP-Glo Kinase Assay. As to conditions: read-out: CDK6/CyclinD3 IC50. Here is the method:
CDK6/Cyclin D3 ADP-Glo Kinase Assay
as §1, with “of the CDK6/Cyclin D3” for “of CDK1/Cyclin Bi”, “values) in the presence” for “values)”, “assay. CDK6/Cyclin D3” for “assay. CDK1/Cyclin B1”, “activity. CDK6/Cychin D3” for “activity. CDK1/Cyclin B1”, “from Carna.” for “from Carna (Cat 04-102).”, “a 90-minute” for “a 90 minute”

In assay [3] the target is CDK4/Cyclin D1 (Homo sapiens (Human), UniProt P11802). Kind of assay: CDK4/Cyclin D1 CHEF Assay. The note with it: AQT; read-out: CDK4/CyclinD1 AQT IC50. An excerpt:
CDK4/Cyclin D1 CHEF Assay
The purpose of CDK4/Cyclin Dl assay is to evaluate the inhibition (% inhibition and IC50 values) of small molecule inhibitors by using a Chelation-Enhance Fluorescence (CHEF) assay. In a CHEF assay, phosphorylation of a peptide substrate results in proportional increase in fluorescence. CHEF kinase assay use peptide substrates containing a synthetic alpha-amino acid with a side chain bearing an 8-hydroxyquinoline derivative (sulfonamido-oxide, Sox). Upon phosphorylation of a nearby serine, threonine or tyrosine and in the presence of Mg(II), the spectral properties of the Sox residue are altered, emitting 485 nm wavelength light when excited with a 360 nm wavelength light source. CDK4/Cyclin D1 catalyzes the phosphoryl transfer to the SOX-labeled substrate peptide AQT0258 from Assayquant Technologies. […] The reaction was initiated with the addition of substrate solution, following a 30-minute pre-incubation of enzyme and inhibitor at 22° C. in the reaction mix. Reactions were allowed to proceed for 3 hrs at 22° C., followed by fluorescence read of the reaction. The IC50 determinations were made from a plot of the fractional velocity as a function of inhibitor concentration fit to the 4 parameters IC50 equation.

Bounds are passed on as bounds.

Chain of CDK4/Cyclin D1 (P11802 whole entry, species assumed): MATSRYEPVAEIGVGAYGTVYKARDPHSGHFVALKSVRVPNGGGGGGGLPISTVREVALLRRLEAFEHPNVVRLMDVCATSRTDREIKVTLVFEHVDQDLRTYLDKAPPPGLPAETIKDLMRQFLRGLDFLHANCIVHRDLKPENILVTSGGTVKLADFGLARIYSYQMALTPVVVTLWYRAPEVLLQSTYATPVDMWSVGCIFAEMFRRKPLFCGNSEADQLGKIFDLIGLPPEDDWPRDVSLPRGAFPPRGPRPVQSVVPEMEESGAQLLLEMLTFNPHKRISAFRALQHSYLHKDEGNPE
Chain of CDK4/Cyclin D1 (P24385 whole entry partner, species assumed): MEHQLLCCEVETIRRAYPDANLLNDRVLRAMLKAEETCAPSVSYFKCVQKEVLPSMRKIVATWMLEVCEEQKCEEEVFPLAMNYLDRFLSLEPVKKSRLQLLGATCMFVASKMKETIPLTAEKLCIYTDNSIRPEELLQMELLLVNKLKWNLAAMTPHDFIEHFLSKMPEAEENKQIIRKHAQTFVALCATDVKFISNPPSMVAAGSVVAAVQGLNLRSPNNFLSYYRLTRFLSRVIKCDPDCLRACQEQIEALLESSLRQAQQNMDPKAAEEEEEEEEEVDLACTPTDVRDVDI
Chain of CDK6/Cyclin D3 (Q00534 whole entry): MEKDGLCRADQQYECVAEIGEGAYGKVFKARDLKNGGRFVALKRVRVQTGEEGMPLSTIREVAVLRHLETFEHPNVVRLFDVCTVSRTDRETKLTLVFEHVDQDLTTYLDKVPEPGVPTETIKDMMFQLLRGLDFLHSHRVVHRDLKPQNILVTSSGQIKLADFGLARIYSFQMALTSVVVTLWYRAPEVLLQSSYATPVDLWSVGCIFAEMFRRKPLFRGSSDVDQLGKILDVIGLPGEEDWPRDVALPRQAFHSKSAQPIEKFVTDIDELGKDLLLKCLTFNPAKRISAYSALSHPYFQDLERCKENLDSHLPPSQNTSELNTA
Chain of CDK6/Cyclin D3 (P30281 whole entry partner): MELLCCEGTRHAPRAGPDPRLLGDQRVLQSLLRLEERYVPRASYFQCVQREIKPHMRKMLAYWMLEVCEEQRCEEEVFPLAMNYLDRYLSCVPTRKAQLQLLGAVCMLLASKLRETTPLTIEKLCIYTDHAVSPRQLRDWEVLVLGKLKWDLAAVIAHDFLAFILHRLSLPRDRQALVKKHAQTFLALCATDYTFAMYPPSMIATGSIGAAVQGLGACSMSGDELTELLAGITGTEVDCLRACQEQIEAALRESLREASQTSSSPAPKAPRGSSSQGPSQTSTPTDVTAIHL
Chain of CDK1/Cyclin B1 (P06493 whole entry): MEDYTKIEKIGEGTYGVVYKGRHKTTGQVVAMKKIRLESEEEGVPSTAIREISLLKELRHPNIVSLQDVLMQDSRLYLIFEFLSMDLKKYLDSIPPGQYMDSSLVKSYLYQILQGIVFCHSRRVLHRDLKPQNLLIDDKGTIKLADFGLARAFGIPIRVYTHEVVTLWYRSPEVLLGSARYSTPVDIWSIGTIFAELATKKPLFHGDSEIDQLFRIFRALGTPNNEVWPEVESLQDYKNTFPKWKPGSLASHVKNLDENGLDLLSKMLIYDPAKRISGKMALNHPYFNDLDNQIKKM
Chain of CDK1/Cyclin B1 (P14635 whole entry partner): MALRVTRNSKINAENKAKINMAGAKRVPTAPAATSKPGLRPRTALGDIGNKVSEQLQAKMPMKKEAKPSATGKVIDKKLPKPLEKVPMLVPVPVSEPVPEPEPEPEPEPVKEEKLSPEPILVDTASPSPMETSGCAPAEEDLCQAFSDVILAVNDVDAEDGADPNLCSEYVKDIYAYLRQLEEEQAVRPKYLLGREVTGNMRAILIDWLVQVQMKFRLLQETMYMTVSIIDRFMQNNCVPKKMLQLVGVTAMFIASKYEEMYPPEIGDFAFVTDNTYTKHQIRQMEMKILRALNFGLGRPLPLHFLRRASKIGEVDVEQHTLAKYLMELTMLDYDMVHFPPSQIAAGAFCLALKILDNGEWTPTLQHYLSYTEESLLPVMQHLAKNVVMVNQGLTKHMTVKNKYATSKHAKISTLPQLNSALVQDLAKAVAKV

For the compound `[2H]C([2H])([2H])N1CC2(CN(c3nc(C)cc4cnc(NC5CCN(S(=O)(=O)C6CC6)CC5)nc34)CC2(F)F)C1` [Compound 13, N-(1-(cyclopropylsulfonyl)piperidin-4-yl)-8-(8,8-difluoro-2-(methyl-d3)-2,6-diazaspiro[3.4]octan-6-yl)-6-methylpyrido[3,4-d]pyrimidin-2-amine], the IC50 in assay [1] was less than 200 nM.

With `CN1C[C@@H]2[C@H](C1)[C@H]2Nc1ncc2ccnc(N3CCC4(CCN(S(C)(=O)=O)C4)C3)c2n1` (stereo partly drawn) [Compound 15, N-((1R,5S,6s)-3-methyl-3-azabicyclo[3.1.0]hexan-6-yl)-8-(7-(methylsulfonyl)-2,7-diazaspiro[4.4]nonan-2-yl) pyrido[3,4-d]pyrimidin-2-amine], the IC50 in assay [2] and in assay [1] was more than 2000 nM each time. On to `CS(=O)(=O)N1CCC(Nc2ncc3ccnc(N4CC5(CCCC5)c5c(F)cccc54)c3n2)CC1` [Compound 19, 8-(4′-fluorospiro [cyclopentane-1,3′-indolin]-1′-yl)-N-(1-(methylsulfonyl)piperidin-4-yl)pyrido[3,4-d]pyrimidin-2-amine], for which the IC50 in assay [2] and in assay [1] was more than 2000 nM in each case.

With `CN1Cc2ccc(Nc3ncc4ccnc(N5CCC6(CCN(S(C)(=O)=O)C6)C5)c4n3)cc2C1` (stereo not drawn) [Compound 23, N-(2-methylisoindolin-5-yl)-8-(7-(methylsulfonyl)-2,7-diazaspiro[4.4]nonan-2-yl) pyrido[3,4-d]pyrimidin-2-amine], the IC50 in assay [2] and in assay [3] was less than 200 nM throughout. Regarding `CN1Cc2ccc(Nc3ncc4ccnc(N5CC6(C5)CS(=O)(=O)C6)c4n3)cc2C1` [Compound 24, 6-(2-((2-methylisoindolin-5-yl)amino)pyrido [3,4-d]pyrimidin-8-yl)-2-thia-6-azaspiro[3.3] heptane2,2-dioxide], the IC50 in assay [2] and in assay [3] was less than 200 nM throughout. For `Cc1cc2cnc(Nc3ccc(N4CC5(CN(C)C5)C4)cc3)nc2c(N2CCC(C#N)(C3CC3)C2)n1` (stereo not drawn) [Compound 28, 3-cyclopropyl-1-(6-methyl-2-((4-(6-methyl-2,6-diazaspiro[3.3]heptan-2-yl)phenyl)amino)pyrido[3,4-d]pyrimidin-8-yl)pyrrolidine-3-carbonitrile], the IC50 in assay [2] and in assay [3] was less than 200 nM throughout. With `Cc1cc2cnc(Nc3cnn(C4CN(CC#N)C4)c3)nc2c(N2CC3(CN(C)C3)C2)n1` [Compound 31, 2-(3-(4-((6-methyl-8-(6-methyl-2,6-diazaspiro[3.3]heptan-2-yl)pyrido[3,4-d]pyrimidin-2-yl)amino)-1H-pyrazol-1-yl)azetidin-1-yl)acetonitrile], in assay [1], the IC50 was more than 2000 nM. Consider `Cc1cc2cnc(NC3CCN(S(=O)(=O)C4CC4)CC3)nc2c(N2CC3(CNC3)C2)n1` [Compound 32, N-(1-(cyclopropylsulfonyl)piperidin-4-yl)-6-methyl-8-(2,6-diazaspiro[3.3]heptan-2-yl) pyrido[3,4-d]pyrimidin-2-amine], for which the IC50 in assay [2] and in assay [3] was less than 200 nM in each case. Turning to `Cc1cc2cnc(Nc3ccc(N4CC5(CN(C)C5)C4)cc3)nc2c(N2CCC3(C2)CC3(F)F)n1` (stereo not drawn) [Compound 34, 8-(1,1-difluoro-5-azaspiro[2.4]heptan-5-yl)-6-methyl-N-(4-(6-methyl-2,6-diazaspiro[3.3]heptan-2-yl)phenyl)pyrido [3,4-d]pyrimidin-2-amine], the IC50 in assay [2] and in assay [3] was less than 200 nM in each case. As for `Cc1cc2cnc(Nc3cnn(CC4(N(C)C)CC4)c3)nc2c(N2CCC(C#N)(C3CC3)C2)n1` (stereo not drawn) [Compound 38, 3-cyclopropyl-1-(2-((1-((1-(dimethylamino)cyclopropyl)methyl)-1H-pyrazol-4-yl)amino)-6-methylpyrido[3,4-d]pyrimidin-8-yl)pyrrolidine-3-carbonitrile], the IC50 in assay [2] and in assay [1] was more than 2000 nM each time.

`Cc1cc2cnc(NC3CCN(S(C)(=O)=O)CC3)nc2c(N2CCC3(C2)CC3(F)F)n1` (stereo not drawn) [Compound 41, 8-(1,1-difluoro-5-azaspiro[2.4]heptan-5-yl)-6-methyl-N-(1-(methylsulfonyl)piperidin-4-yl)pyrido[3,4-d]pyrimidin-2-amine] gave an IC50 in assay [1] of less than 200 nM. For the compound `Cc1cc2cnc(Nc3ccc4c(c3)CN(C3CC3)C4)nc2c(N2CC3(CCNC3)C2)n1` [Compound 47], the IC50 in assay [2] and in assay [3] was less than 200 nM throughout.

For `Cc1cc2cnc(NC3CCN(S(=O)(=O)C4CC4)CC3)nc2c(N2CC3(CCN(C)C3)C2)n1` [Compound 49, N-(1-(cyclopropylsulfonyl)piperidin-4-yl)-6-methyl-8-(6-methyl-2,6-diazaspiro[3.4]octan-2-yl)pyrido[3,4-d]pyrimidin-2-amine], the IC50 in assay [2] is 200 to 500 nM; in assay [3], less than 200 nM. `FC(F)c1cc2cnc(Nc3ccc4c(c3)CN(C3CC3)C4)nc2c(N2CC3(CCNC3)C2)n1` [Compound 50, N-(2-cyclopropylisoindolin-5-yl)-6-(difluoromethyl)-8-(2,6-diazaspiro[3.4]octan-2-yl)pyrido[3,4-d]pyrimidin-2-amine]: the IC50 in assay [2] and in assay [3] was less than 200 nM each time. Consider `Cc1cc2cnc(NC3CCN(S(=O)(=O)CC4CCCC4)CC3)nc2c(N2CC3(CCNC3)C2)n1` [Compound 51, N-(1-((cyclopentylmethyl)sulfonyl)piperidin-4-yl)-6-methyl-8-(2,6-diazaspiro[3.4]octan-2-yl)pyrido[3,4-d]pyrimidin-2-amine], for which the IC50 in assay [2] was 200 to 500 nM; in assay [3], less than 200 nM. As for `COCCN1CC2(C1)CN(c1nc(C3CC3)cc3cnc(NC4CCN(S(=O)(=O)CC5CCC5)CC4)nc13)C2` [Compound 64, N-(1-((cyclobutylmethyl)sulfonyl)piperidin-4-yl)-6-cyclopropyl-8-(6-(2-methoxyethyl)-2,6-diazaspiro[3.3]heptan-2-yl)pyrido [3,4-d]pyrimidin-2-amine], the IC50 is 200 to 500 nM in assay [2] and less than 200 nM in assay [3].

In assay [1], `CS(=O)(=O)N1CCC(Nc2ncc3cc(C4CC4)nc(C4CC5(CNCCO5)C4)c3n2)CC1` (stereo not drawn) [Compound 70, 6-cyclopropyl-N-(1-(methylsulfonyl)piperidin-4-yl)-8-(5-oxa-8-azaspiro[3.5]nonan-2-yl)pyrido[3,4-d]pyrimidin-2-amine] gave an IC50 of less than 200 nM. Consider `Cc1cc2cnc(NC3CCN(S(C)(=O)=O)CC3)nc2c(C2CC3(CNCC3(F)F)C2)n1` (stereo not drawn) [Compound 99, 8-(8,8-difluoro-6-azaspiro[3.4]octan-2-yl)-6-methyl-N-(1-(methylsulfonyl)piperidin-4-yl)pyrido[3,4-d]pyrimidin-2-amine], for which, in assay [1], the IC50 is less than 200 nM.

Consider `[2H]C([2H])([2H])N1CC2(CN(c3nc(C)cc4cnc(NC5CCN(S(=O)(=O)c6cnn(C)c6)CC5)nc34)CC2(F)F)C1` [Example 11, 8-(8,8-difluoro-2-(methyl-d3)-2,6-diazaspiro[3.4]octan-6-yl)-6-methyl-N-(1-((1-methyl-1H-pyrazol-4-yl)sulfonyl)piperidin-4-yl)pyrido[3,4-d]pyrimidin-2-amine], for which, in assay [1], the IC50 is less than 200 nM. `[2H]C([2H])([2H])N1CC2(CN(c3nc(C)cc4cnc(NC5CCN(S(C)(=O)=O)CC5)nc34)CC2(F)F)C1` [Example 12, 8-(8,8-difluoro-2-(methyl-d3)-2,6-diazaspiro[3.4]octan-6-yl)-6-methyl-N-(1-(methylsulfonyl)piperidin-4-yl)pyrido[3,4-d]pyrimidin-2-amine] yielded an IC50 in assay [1] of less than 200 nM.

(Values after patent publication US20250235456A1, “METHODS OF USE FOR AZA-QUINAZOLINE COMPOUNDS” (Iambic Therapeutics, Inc., priority 2024, published 2025).)
